Data published in patent US20160244437A1, “SUBSTITUTED PHENYLALANINE DERIVATIVES” (BAYER PHARMA AKTIENGESELLSCHAFT, priority 2013, published 2016).
Counter-ions that a name gives are not always drawn.

What was measured:
[1] = target: T1, human factor XIa (Homo sapiens, UniProt P03951); assay: Measurement of FXIa inhibition (fluorogenic peptide substrate Boc-Glu(OBzl)-Ala-Arg-AMC); format: biochemical; details: factor XIa from Kordia 0.45 nM, 15 min pre-incubation, 30 min at 22° C., fluorescence
T1 construct: purchased Kordia
T1 sequence (P03951 388-625 limits assumed): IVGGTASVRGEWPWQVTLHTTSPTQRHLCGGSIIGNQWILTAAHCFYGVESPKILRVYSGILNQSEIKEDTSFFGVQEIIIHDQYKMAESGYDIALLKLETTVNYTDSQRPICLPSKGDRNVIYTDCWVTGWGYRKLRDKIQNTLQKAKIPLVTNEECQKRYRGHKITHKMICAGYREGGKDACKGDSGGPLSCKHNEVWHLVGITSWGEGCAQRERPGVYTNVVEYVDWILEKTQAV
T1 sequence (P03951 19-387 partner limits assumed): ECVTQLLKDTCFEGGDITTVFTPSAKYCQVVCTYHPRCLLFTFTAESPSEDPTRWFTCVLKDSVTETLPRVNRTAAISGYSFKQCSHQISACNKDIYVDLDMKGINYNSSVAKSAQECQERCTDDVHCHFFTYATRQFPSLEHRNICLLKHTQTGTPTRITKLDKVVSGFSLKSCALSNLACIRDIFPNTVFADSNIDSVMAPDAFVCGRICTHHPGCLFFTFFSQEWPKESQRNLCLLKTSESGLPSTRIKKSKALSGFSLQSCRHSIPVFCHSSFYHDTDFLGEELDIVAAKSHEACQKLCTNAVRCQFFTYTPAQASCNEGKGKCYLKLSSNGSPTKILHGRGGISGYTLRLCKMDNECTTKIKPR

[2] = test system: human and animal plasma; assay: Determination of anticoagulatory activity: activated partial thromboplastin time (aPTT) in plasma; details: concentration of test substance which brings about a 1.5-fold extension of the aPTT; plasma in vitro, C.K. Prest kit
Summary of the method: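 Citrated plasma (human, mouse, rat, rabbit, pig, dog) incubated with varying compound concentrations and cephalin/kaolin PTT reagent for 3 minutes at 37° C.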

Row | Structure (SMILES) | IC50 [1] | aPTT [2]
1 | NC[C@H]1CC[C@H](C(=O)N[C@@H](Cc2cccc(-c3cccc(C(=O)N4CCOCC4)c3)c2)C(=O)Nc2ccc(-c3nnn[nH]3)cc2)CC1 [Example 47, trans-4-(Aminomethyl)-N-[(2S)-3-[3′-(morpholin-4-ylcarbonyl)biphenyl-3-yl]-1-oxo-1-{[4-(1H-tetrazol-5-yl)phenyl]amino}propan-2-yl]cyclohexanecarboxamide hydrochloride] | 5.2 nM | 0.34 µmol/L
2 | NC[C@H]1CC[C@H](C(=O)N[C@@H](Cc2cccc(-c3ccc(C(=O)N4CCN(CCO)CC4)cc3)c2)C(=O)Nc2ccc(-c3nnn[nH]3)cc2)CC1 [Example 48, trans-4-(Aminomethyl)-N-[(2S)-3-(4′-{[4-(2-hydroxyethyl)piperazin-1-yl]carbonyl}biphenyl-3-yl)-1-oxo-1-{[4-(1H-tetrazol-5-yl)phenyl]amino}propan-2-yl]cyclohexanecarboxamide hydrochloride] | 6.9 nM | 0.44 µmol/L
3 | NC[C@H]1CC[C@H](C(=O)N[C@@H](Cc2cccc(-c3ccc(C(=O)NC4CCNCC4)cc3)c2)C(=O)Nc2ccc3cn[nH]c3c2)CC1 [Example 51, 3′-[(2S)-2-({[trans-4-(Aminomethyl)cyclohexyl]carbonyl}amino)-3-(1H-indazol-6-ylamino)-3-oxopropyl]-N-(piperidin-4-yl)biphenyl-4-carboxamide hydrochloride] | 36 nM | 0.33 µmol/L
4 | Cc1ccc(S(=O)(=O)N2CCOCC2)cc1-c1cccc(C[C@H](NC(=O)[C@H]2CC[C@H](CN)CC2)C(=O)Nc2ccc(-c3noc(=O)[nH]3)cc2)c1 [Example 52, trans-4-(Aminomethyl)-N-[(2S)-3-[2′-methyl-5′-(morpholin-4-ylsulphonyl)biphenyl-3-yl]-1-oxo-1-{[4-(5-oxo-4,5-dihydro-1,2,4-oxadiazol-3-yl)phenyl]amino}propan-2-yl]cyclohexanecarboxamide hydrochloride] | 1.8 nM | 0.06 µmol/L
5 | NC[C@H]1CC[C@H](C(=O)N[C@@H](Cc2cccc(-c3ccccc3S(=O)(=O)N3CCOCC3)c2)C(=O)Nc2ccc(-c3nn[nH]n3)cc2)CC1 [Example 54, trans-4-(Aminomethyl)-N-[(2S)-3-[2′-(morpholin-4-ylsulphonyl)biphenyl-3-yl]-1-oxo-1-{[4-(2H-tetrazol-5-yl)phenyl]amino}propan-2-yl]cyclohexanecarboxamide hydrochloride] | 1.9 nM | 0.28 µmol/L
6 | Cc1cc(S(=O)(=O)NC2CCNCC2)ccc1-c1cccc(C[C@H](NC(=O)[C@H]2CC[C@H](CN)CC2)C(=O)Nc2ccc(-c3nnc(Cl)[nH]3)cc2)c1 [Example 55, trans-4-(Aminomethyl)-N-{(2S)-1-{[4-(3-chloro-4H-1,2,4-triazol-5-yl)phenyl]amino}-3-[2′-methyl-4′-(piperidin-4-ylsulphamoyl)biphenyl-3-yl]-1-oxopropan-2-yl}cyclohexanecarboxamide hydrochloride] | 4.3 nM | 0.14 µmol/L
7 | CN(C)CCCOc1ccc(-c2cccc(C[C@H](NC(=O)[C@H]3CC[C@H](CN)CC3)C(=O)Nc3ccc(-c4nnn[nH]4)cc3)c2)cn1 [Example 59, N-alpha-{[trans-4-(Aminomethyl)cyclohexyl]carbonyl}-3-{6-[3-(dimethylamino)propoxy]pyridin-3-yl}-N-[4-(1H-tetrazol-5-yl)phenyl]-L-phenylalaninamide hydrochloride] | 7.2 nM | 0.19 µmol/L
8 | Cc1ccc(S(=O)(=O)NCc2ccccc2)cc1-c1cccc(C[C@H](NC(=O)[C@H]2CC[C@H](CN)CC2)C(=O)Nc2ccc(-c3noc(=O)[nH]3)cc2)c1 [Example 60, trans-4-(Aminomethyl)-N-[(2S)-3-[5′-(benzylsulphamoyl)-2′-methylbiphenyl-3-yl]-1-oxo-1-{[4-(5-oxo-4,5-dihydro-1,2,4-oxadiazol-3-yl)phenyl]amino}propan-2-yl]cyclohexanecarboxamide hydrochloride] | 1.4 nM | 0.21 µmol/L
9 | NC[C@H]1CC[C@H](C(=O)N[C@@H](Cc2cccc(-c3cnc(N4CCNCC4)nc3)c2)C(=O)Nc2ccc3[nH]c(=O)[nH]c3c2)CC1 [Example 67, N-alpha-{[trans-4-(Aminomethyl)cyclohexyl]carbonyl}-N-(2-oxo-2,3-dihydro-1H-benzimidazol-5-yl)-3-[2-(piperazin-1-yl)pyrimidin-5-yl]-L-phenylalaninamide hydrochloride] | 37 nM | 0.15 µmol/L
10 | NC[C@H]1CC[C@H](C(=O)N[C@@H](Cc2cccc(-c3cnc(N4CCNCC4)nc3)c2)C(=O)Nc2ccc(-c3nnn[nH]3)cc2)CC1 [Example 68, N-alpha-{[trans-4-(Aminomethyl)cyclohexyl]carbonyl}-3-[2-(piperazin-1-yl)pyrimidin-5-yl]-N-[4-(1H-tetrazol-5-yl)phenyl]-L-phenylalaninamide hydrochloride] | 7.3 nM | 0.18 µmol/L
11 | CN(C)c1ncc(-c2cccc(C[C@H](NC(=O)[C@H]3CC[C@H](CN)CC3)C(=O)Nc3ccc(-c4nnn[nH]4)cc3)c2)cn1 [Example 70, N-alpha-{[trans-4-(Aminomethyl)cyclohexyl]carbonyl}-3-[2-(dimethylamino)pyrimidin-5-yl]-N-[4-(1H-tetrazol-5-yl)phenyl]-L-phenylalaninamide hydrochloride] | 2.9 nM | 0.36 µmol/L
12 | CN(C)c1ncc(-c2cccc(C[C@H](NC(=O)[C@H]3CC[C@H](CN)CC3)C(=O)Nc3ccc(-c4nnn[nH]4)cc3)c2)c(OCc2ccccc2)n1 [Example 78, N-alpha-{[trans-4-(Aminomethyl)cyclohexyl]carbonyl}-3-[4-(benzyloxy)-2-(dimethylamino)pyrimidin-5-yl]-N-[4-(1H-tetrazol-5-yl)phenyl]-L-phenylalaninamide hydrochloride] | 2.3 nM | 0.19 µmol/L

The next lines start with results.

Row | IC50 [1] | Structure (SMILES) | aPTT [2]
13 | 21 nM | Cc1ccc(C[C@H](NC(=O)[C@H]2CC[C@H](CN)CC2)C(=O)Nc2ccc(-c3nnn[nH]3)cc2)cc1-c1ccc(C(=O)NC2CCNCC2)cc1 [Example 49, 5′-[(2S)-2-({[trans-4-(Aminomethyl)cyclohexyl]carbonyl}amino)-3-oxo-3-{[4-(1H-tetrazol-5-yl)phenyl]amino}propyl]-2′-methyl-N-(piperidin-4-yl)biphenyl-4-carboxamide hydrochloride] | 0.47 µmol/L
14 | 15 nM | COc1ccc(C[C@H](NC(=O)[C@H]2CC[C@H](CN)CC2)C(=O)Nc2ccc(-c3nn[nH]n3)cc2)cc1-c1ccc(C(=O)NC2CCNCC2)cc1C [Example 56, 5′-[(2S)-2-({[trans-4-(Aminomethyl)cyclohexyl]carbonyl}amino)-3-oxo-3-{[4-(2H-tetrazol-5-yl)phenyl]amino}propyl]-2′-methoxy-2-methyl-N-(piperidin-4-yl)biphenyl-4-carboxamide hydrochloride] | 0.28 µmol/L
15 | 17 nM | COc1ccc(C[C@H](NC(=O)[C@H]2CC[C@H](CN)CC2)C(=O)Nc2ccc(-c3nn[nH]n3)cc2)cc1-c1ccc(C(=O)N[C@@H]2CCNC2)cc1C [Example 57, 5′-[(2S)-2-({[trans-4-(Aminomethyl)cyclohexyl]carbonyl}amino)-3-oxo-3-{[4-(2H-tetrazol-5-yl)phenyl]amino}propyl]-2′-methoxy-2-methyl-N-[(3R)-pyrrolidin-3-yl]biphenyl-4-carboxamide hydrochloride] | 0.3 µmol/L
16 | 17 nM | COc1ccc(C[C@H](NC(=O)[C@H]2CC[C@H](CN)CC2)C(=O)Nc2ccc(-c3nn[nH]n3)cc2)cc1-c1ccc(C(=O)NCCN)cc1C [Example 58, N-(2-Aminoethyl)-5′-[(2S)-2-({[trans-4-(aminomethyl)cyclohexyl]carbonyl}amino)-3-oxo-3-{[4-(2H-tetrazol-5-yl)phenyl]amino}propyl]-2′-methoxy-2-methylbiphenyl-4-carboxamide hydrochloride] | 0.3 µmol/L
17 | 12 nM | NC[C@H]1CC[C@H](C(=O)N[C@@H](Cc2cccc(-c3cccc(C(=O)NCCN4CCCC4)c3)c2)C(=O)Nc2ccc(-c3nnn[nH]3)cc2)CC1 [Example 61, 3′-[(2S)-2-({[trans-4-(Aminomethyl)cyclohexyl]carbonyl}amino)-3-oxo-3-{[4-(1H-tetrazol-5-yl)phenyl]amino}propyl]-N-[2-(pyrrolidin-1-yl)ethyl]biphenyl-3-carboxamide hydrochloride] | 0.37 µmol/L
18 | 6.2 nM | CNC(=O)c1ccc(F)c(-c2cccc(C[C@H](NC(=O)[C@H]3CC[C@H](CN)CC3)C(=O)Nc3ccc(-c4nnn[nH]4)cc3)c2)c1 [Example 62, 3′-[(2S)-2-({[trans-4-(Aminomethyl)cyclohexyl]carbonyl}amino)-3-oxo-3-{[4-(1H-tetrazol-5-yl)phenyl]amino}propyl]-6-fluoro-N-methylbiphenyl-3-carboxamide hydrochloride] | 0.48 µmol/L
19 | 5.2 nM | Cc1cc(C(=O)NC2CCC(N(C)C)CC2)ccc1-c1cccc(C[C@H](NC(=O)[C@H]2CC[C@H](CN)CC2)C(=O)Nc2ccc(-c3nnn[nH]3)c(F)c2)c1 (stereo partly drawn) [Example 64, 3′-[(2S)-2-({[trans-4-(Aminomethyl)cyclohexyl]carbonyl}amino)-3-{[3-fluoro-4-(1H-tetrazol-5-yl)phenyl]amino}-3-oxopropyl]-N-[4-(dimethylamino)cyclohexyl]-2-methylbiphenyl-4-carboxamide hydrochloride] | 0.12 µmol/L
20 | 3.3 nM | Cc1nc(N)ccc1-c1cccc(C[C@H](NC(=O)[C@H]2CC[C@H](CN)CC2)C(=O)Nc2ccc(-c3nnn[nH]3)cc2)c1 [Example 66, N-alpha-{[trans-4-(Aminomethyl)cyclohexyl]carbonyl}-3-(6-amino-2-methylpyridin-3-yl)-N-[4-(1H-tetrazol-5-yl)phenyl]-L-phenylalaninamide hydrochloride] | 0.12 µmol/L
